The target of experiment [1] is T1, sigma-1 receptor (σ1R) (Homo sapiens, UniProt Q99720). Nature of the experiment: σ1R radioligand binding assay.
Procedure: (§1) The radioligand binding assays and the data analysis were performed as previously reported [24].
The target of experiment [2] is T2, μ opioid receptor (MOR) (Homo sapiens, UniProt P35372). Nature of the experiment: MOR radioligand binding assay.
For experiment [3], the target named is δ opioid receptor (DOR) (Homo sapiens, UniProt P41143). Nature of the experiment: DOR radioligand binding assay.
Experiment [4] has as its target T3, κ opioid receptor (KOR) (Homo sapiens, UniProt P41145). Nature of the experiment: KOR radioligand binding assay.
Experiment [5] addresses T4, sigma-2 receptor (σ2R) (Homo sapiens, UniProt Q5BJF2). The experiment can be described thus: σ2R radioligand binding assay.
Procedure: as §1
Experiment [6] has as its target T5, MOR (Mus musculus, UniProt P42866).
T5 construct: vasa deferentia were removed from the mice; from tissue; host or cells: vas deferens of male NMRI mice
The experiment can be described thus: MVD assay, Ke with naloxone / against DAMGO (MOR). In kind it is cell-based. To be noted: for functional profile at MOR: MVD, result in words; for Ke ± SEM (nM) Naloxone (MOR): Ke of naloxone against the listed agonist in isolated MVD, single-dose method, n = 5–9.
Procedure: (§2) Isolated mouse vas deferens. The preparation of MVD was carried out as previously described by Hughes et al. [25] with minor modifications. Briefly, vasa deferentia were removed from the mice and unsheathed from the surrounding fat, connective tissue, and blood vessels. […] The upper end of the isolated organ was attached to a transducer using a thread and connected to a computer via an amplifier (PowerLab 4/20, ADInstruments, Castle Hill, NSW, Australia). The resting tension was adjusted to 0.1 g. Electrical field stimulation was applied through trains of 10 Hz with 10 rectangular impulses at a 1 ms pulse width, 9 V/cm (i.e., supramaximal intensity), repeated with 0.1 Hz (Stimulator 88, Grass Medical Instruments, Quincy, MA, USA).
(§3) Data analysis. The efficacy of each test compound to inhibit electrically evoked contraction was measured as the percentage change from baseline. […] Data are presented as the mean ± SEM. Ke values were calculated using dose ratio and the single-dose method [26]. Statistical analysis was performed with one-way ANOVA, followed by the Newman–Keuls post hoc test.

The test system of experiment [7] is mouse vas deferens (MVD). The experiment can be described thus: Isolated mouse vas deferens (MVD): inhibition of electrically evoked contractions. Format: cell-based. The settings on record: for IC50: 50% inhibitory concentration on electrically evoked contractions of isolated MVD, n = 5–9. The procedure:
Animals. Male NMRI mice (Toxicoop Zrt., Budapest, Hungary) weighing 35–45 g were kept in groups in a temperature- and humidity-controlled room under a 12 h light/dark cycle and with food and water available ad libitum. Each animal was used for one experiment.
Isolated mouse vas deferens. The preparation of MVD was carried out as previously described by Hughes et al. with minor modifications. Briefly, vasa deferentia were removed from the mice and unsheathed from the surrounding fat, connective tissue, and blood vessels. They were then suspended between an upper (ring) and a lower (straight) electrode positioned at 5.5 cm, in 5 mL organ baths containing Krebs solution (concentrations in mM: NaCl, 118.0; NaHCO3, 25.0; KCl, 4.7; KH2PO4, 1.2; glucose, 11.0; CaCl2, 2.5; and MgSO4, 1.2) aerated with a gas mixture of 95% O2 and 5% CO2 and at a constant temperature of 36 °C. The upper end of the isolated organ was attached to a transducer using a thread and connected to a computer via an amplifier (PowerLab 4/20, ADInstruments, Castle Hill, NSW, Australia). The resting tension was adjusted to 0.1 g. Electrical field stimulation was applied through trains of 10 Hz with 10 rectangular impulses at a 1 ms pulse width, 9 V/cm (i.e., supramaximal intensity), repeated with 0.1 Hz (Stimulator 88, Grass Medical Instruments, Quincy, MA, USA).
Experimental paradigms. The experimental design of MVD required a 50 min equilibration period under electrical field stimulation, during which Krebs solution was changed every 5 min. After the equilibration period, test compounds were added cumulatively, allowing a minimum of 2 min between doses. To determine the test compounds’ dissociation constant, Ke, vasa deferentia were preincubated with the antagonist naloxone, and without washing a single concentration of the agonist test, the compound was added.
Data analysis. The efficacy of each test compound to inhibit electrically evoked contraction was measured as the percentage change from baseline. […] Data are presented as the mean ± SEM. Ke values were calculated using dose ratio and the single-dose method. […]

The target in experiment [8] is T6, KOR (Mus musculus, UniProt P33534).
T6 construct: vasa deferentia were removed from the mice; from tissue; host or cells: vas deferens of male NMRI mice
T6 sequence (P33534 whole entry): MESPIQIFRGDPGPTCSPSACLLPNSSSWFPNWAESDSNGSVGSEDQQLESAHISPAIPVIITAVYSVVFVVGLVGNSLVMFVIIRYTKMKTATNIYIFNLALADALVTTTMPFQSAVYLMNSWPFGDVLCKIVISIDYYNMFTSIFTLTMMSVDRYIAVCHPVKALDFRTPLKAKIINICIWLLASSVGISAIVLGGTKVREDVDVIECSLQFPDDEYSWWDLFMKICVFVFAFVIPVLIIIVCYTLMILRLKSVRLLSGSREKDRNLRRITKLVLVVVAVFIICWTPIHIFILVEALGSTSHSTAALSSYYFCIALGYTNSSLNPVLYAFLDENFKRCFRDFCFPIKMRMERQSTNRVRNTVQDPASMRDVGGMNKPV
The experiment can be described thus: MVD assay, Ke with nor-BNI (KOR). Format: cell-based. To be noted: Ke of nor-BNI against the listed agonist in isolated MVD; n = 5–9.
Procedure: as §2, §3

For experiment [9], the system named is Male Swiss CD1 mice. The experiment can be described thus: Thermal acute pain model (radiant heat tail-flick test). Format: in vivo, mouse. The procedure:
Thermal acute pain model (tail-flick test). Male Swiss CD1 mice (Envigo Laboratories, S. Pietro al Natisone (UD)) weighing 25–30 g were housed at six per cage, kept at a constant room temperature (25 ± 1 °C), under a 12:12 h light-and-dark cycle with food and water ad libitum. Each mouse was used for only one experiment. […] The radiant heat tail-flick test consists of irradiation of the lower third of the tail with an infrared source (Ugo Basile, Comerio, Italy). The day before the experiment, performed at room temperature (25 ± 1 °C), mice were habituated to the procedure for measuring the nociception threshold. The basal predrug latency was established between 3 and 6 s and was calculated as the average of the first three measurements, which were performed at 5 min intervals. A cutoff latency of 15 s was established to minimize damage to the tail. All tested compounds were dissolved in pyrogen-free isotonic saline (Baxter Healthcare, Deerfield, IL, USA) and DMSO (5%) and were administered to mice i.p. Post-treatment tail-flick latencies (TFLs) were determined at 15, 30, 45, 60, and 90 min after i.p. injection.

The test system of experiment [10] is Male Wistar rats. The experiment can be described thus: Inflammatory pain model (CFA-evoked hyperalgesia, Randall–Selitto paw pressure threshold). The settings on record: s.c. Format: in vivo, rat. As to the method:
Inflammatory pain model (CFA-evoked hyperalgesia). Male Wistar rats (190–250 g) (Toxicoop Zrt., Budapest, Hungary) under brief isoflurane (Willy Rüsch GmbH, Böblingen, Germany) anesthesia received i.pl. injection of 0.15 mL complete Freund’s adjuvant (CFA) (source), a water-in-oil emulsion of killed mycobacterium, into the right hind paw. The experimental procedures were performed as described previously.
Experimental paradigms of CFA-evoked hyperalgesia. The measurement of the effect of the test compound was carried out 4 days following i.pl. CFA injection as described previously. Briefly, the baseline (pretest compound) of the paw pressure threshold (PPT) of both inflamed and noninflamed paws was determined. Next, the drug or vehicle was s.c. administered at a volume of 5 mL/kg body weight. Then, the response threshold to mechanical pressure stimulation of inflamed and noninflamed paws was given as paw pressure thresholds (PPTs) and measured at 30 and 60 min post administration using an arbitrary cutoff weight of twice the baseline.

For experiment [11], the target named is T7, DOR (Mus musculus, UniProt P32300).
T7 construct: vasa deferentia were removed from the mice; from tissue; host or cells: vas deferens of male NMRI mice
T7 sequence (P32300 whole entry): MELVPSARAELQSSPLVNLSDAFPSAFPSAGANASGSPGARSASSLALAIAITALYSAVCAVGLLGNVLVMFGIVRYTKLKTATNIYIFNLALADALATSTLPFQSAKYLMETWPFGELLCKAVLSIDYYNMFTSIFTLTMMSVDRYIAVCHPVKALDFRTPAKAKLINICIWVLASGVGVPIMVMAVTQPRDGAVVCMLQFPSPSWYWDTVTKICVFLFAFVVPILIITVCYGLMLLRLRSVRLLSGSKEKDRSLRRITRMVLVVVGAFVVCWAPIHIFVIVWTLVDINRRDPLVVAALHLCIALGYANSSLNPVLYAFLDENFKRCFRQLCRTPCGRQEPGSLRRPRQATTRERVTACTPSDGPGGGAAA
The experiment can be described thus: MVD assay, Ke with naltrindole (DOR). Format: cell-based. To be noted: Ke of naltrindole against the listed agonist in isolated MVD; n = 5–9.
Procedure: as §2
Experimental paradigms. The experimental design of MVD required a 50 min equilibration period under electrical field stimulation, during which Krebs solution was changed every 5 min. […]
Data analysis. The efficacy of each test compound to inhibit electrically evoked contraction was measured as the percentage change from baseline. […] Ke values were calculated using dose ratio and the single-dose method [26]. […]

Experiment [12] deals with T3, κ opioid receptor (KOR). To be noted: read-out: Ki (nM) ± SD KOR; cited from earlier work.
The target of experiment [13] is T1, sigma-1 receptor (σ1R). The settings on record: read-out: Ki (nM) ± SD σ1R; cited from earlier work.
Experiment [14] deals with T4, sigma-2 receptor (σ2R). To be noted: read-out: Ki (nM) ± SD σ2R; cited from earlier work.
In experiment [15] the target is T2, μ opioid receptor (MOR). To be noted: read-out: Ki (nM) ± SD MOR; cited from earlier work.
[16] abbreviates: mean ± SD of at least two experiments in duplicate, read-out: Ki (nM) ± SD MOR.
Where [17] appears, read: mean ± SD of at least two experiments in duplicate, read-out: Ki (nM) ± SD DOR.
The mark [18] stands for this setting: mean ± SD of at least two experiments in duplicate, read-out: Ki (nM) ± SD KOR.

“And” between values parts separate entries of the source, which are not always exact repeats. Equal entries are not always repeated. Where two headings read alike, the source gives them in different places. Where only a bound is given, the exact number is not on record here.

These results are taken from article PMC10301092, “New Insights into the Opioid Analgesic Profile of cis-(−)-N-Normetazocine-derived Ligands” (Molecules, 2023).

T3 sequence (P41145 whole entry): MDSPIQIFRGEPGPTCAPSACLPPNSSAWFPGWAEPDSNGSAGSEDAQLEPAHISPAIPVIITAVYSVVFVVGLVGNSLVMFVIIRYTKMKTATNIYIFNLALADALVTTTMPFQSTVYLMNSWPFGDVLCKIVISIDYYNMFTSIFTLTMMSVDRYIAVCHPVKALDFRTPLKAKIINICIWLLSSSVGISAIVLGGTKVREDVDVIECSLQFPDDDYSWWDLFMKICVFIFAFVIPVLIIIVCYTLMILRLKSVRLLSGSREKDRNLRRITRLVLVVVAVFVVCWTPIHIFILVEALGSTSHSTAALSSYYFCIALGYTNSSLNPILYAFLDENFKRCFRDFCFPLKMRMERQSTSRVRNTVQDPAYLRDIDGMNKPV
Sequence of δ opioid receptor (DOR) (P41143 whole entry): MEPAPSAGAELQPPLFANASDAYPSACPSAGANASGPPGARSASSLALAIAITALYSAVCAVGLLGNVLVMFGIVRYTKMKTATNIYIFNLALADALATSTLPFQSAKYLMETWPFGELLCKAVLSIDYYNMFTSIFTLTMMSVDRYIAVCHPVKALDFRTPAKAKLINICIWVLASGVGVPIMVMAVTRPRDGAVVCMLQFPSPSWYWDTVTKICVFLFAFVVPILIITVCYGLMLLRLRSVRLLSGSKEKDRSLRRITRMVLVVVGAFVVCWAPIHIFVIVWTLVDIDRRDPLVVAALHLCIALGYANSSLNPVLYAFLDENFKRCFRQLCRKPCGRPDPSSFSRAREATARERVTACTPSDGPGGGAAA
T2 sequence (P35372 whole entry, species assumed): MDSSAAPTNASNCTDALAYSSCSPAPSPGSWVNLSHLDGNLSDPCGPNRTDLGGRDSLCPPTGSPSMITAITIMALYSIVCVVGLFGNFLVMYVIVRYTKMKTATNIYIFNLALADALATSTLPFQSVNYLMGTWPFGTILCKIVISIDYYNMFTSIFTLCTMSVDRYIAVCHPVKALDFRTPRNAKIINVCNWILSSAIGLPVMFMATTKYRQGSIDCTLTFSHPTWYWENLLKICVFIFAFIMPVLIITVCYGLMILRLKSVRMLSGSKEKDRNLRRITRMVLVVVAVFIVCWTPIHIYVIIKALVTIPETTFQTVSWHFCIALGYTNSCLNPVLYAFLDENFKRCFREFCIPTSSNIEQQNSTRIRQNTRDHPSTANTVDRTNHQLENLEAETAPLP
T1 sequence (Q99720 whole entry, species assumed): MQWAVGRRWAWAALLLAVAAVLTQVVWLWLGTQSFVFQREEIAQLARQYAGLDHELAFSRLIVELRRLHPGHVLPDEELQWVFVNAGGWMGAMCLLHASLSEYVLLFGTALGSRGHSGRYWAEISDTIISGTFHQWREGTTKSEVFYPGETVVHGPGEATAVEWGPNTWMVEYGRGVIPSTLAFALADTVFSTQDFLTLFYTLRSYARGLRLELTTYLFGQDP
T4 sequence (Q5BJF2 whole entry): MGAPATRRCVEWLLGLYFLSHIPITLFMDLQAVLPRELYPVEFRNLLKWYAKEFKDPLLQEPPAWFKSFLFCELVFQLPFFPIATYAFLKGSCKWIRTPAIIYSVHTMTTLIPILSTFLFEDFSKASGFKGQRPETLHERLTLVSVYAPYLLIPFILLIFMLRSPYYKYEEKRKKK
T5 sequence (P42866 whole entry): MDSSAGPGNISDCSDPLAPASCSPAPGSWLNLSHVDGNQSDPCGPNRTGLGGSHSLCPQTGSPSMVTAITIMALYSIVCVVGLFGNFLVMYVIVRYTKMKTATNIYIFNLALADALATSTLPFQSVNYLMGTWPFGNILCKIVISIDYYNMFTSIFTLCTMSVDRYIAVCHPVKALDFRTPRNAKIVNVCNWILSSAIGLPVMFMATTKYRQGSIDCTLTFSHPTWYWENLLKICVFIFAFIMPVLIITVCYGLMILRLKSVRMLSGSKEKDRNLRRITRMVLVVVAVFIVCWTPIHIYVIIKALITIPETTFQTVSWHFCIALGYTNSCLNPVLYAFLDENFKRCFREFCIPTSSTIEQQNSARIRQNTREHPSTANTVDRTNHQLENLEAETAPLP

As to `CN1CCN(CCc2ccc(Cl)c(Cl)c2)CC1` [BD-1063, reference compound], the Ki (usually the equilibrium dissociation constant of an inhibitor or competing ligand from its target) in [1] (mean ± SD of at least two experiments in duplicate, read-out: Ki (nM) ± SD σ1R) amounted to 14 ± 2.7 nM.

Consider `C[C@H]1[C@H]2Cc3ccc(O)cc3[C@]1(C)CCN2CCC(=O)Nc1ccccc1N` [Compound 3, N-(2-aminophenyl)-3-((2R,6R,11R)-8-hydroxy-6,11-dimethyl-1,4,5,6-tetrahydro-2,6-methanobenzo[d]azocin-3(2H)-yl)propanamide], for which the Ki in [2] was 5.96 ± 0.08 nM; in experiment [3] it was 155 ± 1.5 nM; in experiment [4], 93 ± 0.63 nM; in experiment [1], > 10000 nM; in [5], > 10000 nM. Further, the “functional profile at MOR” value in experiment [6] was “antagonist”.

Take `C[C@@H]1[C@@H]2Cc3ccc(O)cc3[C@@]1(C)CCN2CCC(=O)Nc1ccccc1N` [Compound 4, N-(2-aminophenyl)-3-((2S,6S,11S)-8-hydroxy-6,11-dimethyl-1,4,5,6-tetrahydro-2,6-methanobenzo[d]azocin-3(2H)-yl)propanamide]: the inhibition constant Ki in [2] is 408 ± 11 nM; in experiment [3] it was 3120 ± 73 nM; in experiment [4], 154 ± 6 nM; in experiment [1], 729 ± 168 nM; in experiment [5], > 10000 nM.

In the case of `C[C@H]1[C@H]2Cc3ccc(O)cc3[C@]1(C)CCN2CCCC(=O)Nc1ccccc1N` [Compound 5, N-(2-aminophenyl)-4-((2R,6R,11R)-8-hydroxy-6,11-dimethyl-1,4,5,6tetrahydro-2,6-methanobenzo[d]azocin-3(2H)-yl)butanamide], the inhibition constant (Ki) in [2] (setting [16]) was 479 ± 10 nM; in experiment [3] (setting [17]), 1030 ± 16 nM; in experiment [4] (setting [18]), 970 ± 21 nM; in experiment [1], > 10000 nM; in experiment [5], > 10000 nM.

As for `C[C@@H]1[C@@H]2Cc3ccc(O)cc3[C@@]1(C)CCN2CCCC(=O)Nc1ccccc1N` [Compound 6, N-(2-aminophenyl)-4-((2S,6S,11S)-8-hydroxy-6,11-dimethyl-1,4,5,6tetrahydro-2,6-methanobenzo[d]azocin-3(2H)-yl)butanamide], the Ki was 810 ± 15 nM in experiment [2] (setting [16]); 4190 ± 60 nM in experiment [3] (setting [17]); 2455 ± 11 nM in experiment [4] (setting [18]); 857 ± 212 nM in [1]; > 10000 nM in experiment [5].

`C[C@H]1[C@H]2Cc3ccc(O)cc3[C@]1(C)CCN2CCC(=O)Nc1ccccn1` [Compound 7, 3-((2R,6R,11R)-8-hydroxy-6,11-dimethyl-1,4,5,6-tetrahydro-2,6-methanobenzo[d]azocin-3(2H)-yl)-N-(pyridin-2-yl)propanamide]: the Ki in [2] is 1.49 ± 0.24 nM; in experiment [3] it was 138 ± 5 nM; in experiment [4], 64 ± 7 nM; in [1], > 10000 nM; in [5], > 10000 nM. Also, the 50% inhibitory concentration (IC50) – broadly, the concentration that inhibits the measured activity by half – in experiment [7] (Mus musculus) is 66.88 ± 0.38 nM. The “effect on electrically evoked MVD smooth muscle contractions” value in [7] (result in words) was “concentration-dependent inhibitory effect”. For the same compound, the “Ke ± SEM (nM) Naloxone (MOR)” value in experiment [6] worked out at 2.42 ± 0.45 nM. Moreover, in experiment [6], the “functional profile at MOR” value is reported as “agonist”. In [8], the “Ke ± SEM (nM) Nor-BNI (KOR)” value was determined as 68.18 ± 15.98 nM. The “effect on mean tail-flick latency” value in experiment [9] (i.p., 3, 4, and 5 mg/kg, compared with vehicle group) is on record as “increased the mean tail-flick latency”. Also, the “time of highest antinociceptive effect” value in [9] (tail-flick, after i.p. injection) was 45 min and 30 to 45 min. For the same compound, the “restoring hyperalgesia of inflamed paws (PPT)” value in experiment [10] (5000 and 2500 µg/kg, at 30 and 60 min) is given as “effective”; in [10] (lower doses of the range 625–5000 µg/kg), “tendency of antinociceptive effect”. Moreover, the “effect on noninflamed PPT” value in experiment [10] (in certain doses, compared with vehicle) is reported as “significantly increase the noninflamed PPT”.

`C[C@@H]1[C@@H]2Cc3ccc(O)cc3[C@@]1(C)CCN2CCC(=O)Nc1ccccn1` [Compound 8, 3-((2S,6S,11S)-8-hydroxy-6,11-dimethyl-1,4,5,6-tetrahydro-2,6-methanobenzo[d]azocin-3(2H)-yl)-N-(pyridin-2-yl)propanamide]: the inhibition constant (Ki) in experiment [2] is 563 ± 23 nM; in experiment [3] it was > 10000 nM; in experiment [4] it was 1380 ± 20 nM; in [1] it was 2510 ± 737 nM; in experiment [5] it was > 10000 nM.

Regarding `CC1(C)SSC(C)(C)[C@@H](NC(=O)[C@@H](N)Cc2ccc(O)cc2)C(=O)NCC(=O)N[C@@H](Cc2ccccc2)C(=O)N[C@H]1C(=O)O` [DPDPE], the “Ke ± SEM (nM) Nor-BNI (KOR)” value in experiment [8] stood at 2.57 ± 1.81 nM.

Regarding `CC[C@@]12CCN(CC3CC3)C(C(=O)c3ccc(O)cc31)[C@@H]2C` [EKC, reference compound], half-maximal inhibition in [7] (IC50) was put at 14.1 ± 0.69 nM. The “Ke ± SEM (nM) Naloxone (MOR)” value in [6] is recorded as 8.82 ± 0.52 nM. Moreover, the “Ke ± SEM (nM) Naltrindole (DOR)” value in experiment [11] is on record as 11.47 ± 5.35 nM. Further, in experiment [8], the “Ke ± SEM (nM) Nor-BNI (KOR)” value is 1.76 ± 0.35 nM.

For the compound `C[C@H]1[C@H]2Cc3ccc(O)cc3[C@]1(C)CCN2CCC(=O)Nc1ccccc1` [LP1], in experiment [2] (ratio of Ki DOR to Ki MOR), the “Ki Ratios DOR/MOR” value came out at 35.1. Also, the “Ki Ratios KOR/MOR” value in experiment [2] (ratio of Ki KOR to Ki MOR) worked out at 132.5. Further, the Ki is 110 ± 6 nM in [12], 149 ± 4 nM in [13] and 1680 nM in experiment [14].

For the compound `CCC(=O)N(CC)c1ccccc1` [N-ethyl-N-phenyl-propanamide], the inhibitory constant (Ki) in [15] is 136 nM.

With `CCC(=O)N(C)c1ccccc1` [N-methyl-N-phenyl-propanamide], in [15], the Ki was 65 nM.
